Among the data in publication PMC7736868, “Fluorescent ligands for dopamine D2/D3 receptors” (Scientific Reports, 2020) are Ki values, retold here.

human D3R, sequence (P35462 whole entry): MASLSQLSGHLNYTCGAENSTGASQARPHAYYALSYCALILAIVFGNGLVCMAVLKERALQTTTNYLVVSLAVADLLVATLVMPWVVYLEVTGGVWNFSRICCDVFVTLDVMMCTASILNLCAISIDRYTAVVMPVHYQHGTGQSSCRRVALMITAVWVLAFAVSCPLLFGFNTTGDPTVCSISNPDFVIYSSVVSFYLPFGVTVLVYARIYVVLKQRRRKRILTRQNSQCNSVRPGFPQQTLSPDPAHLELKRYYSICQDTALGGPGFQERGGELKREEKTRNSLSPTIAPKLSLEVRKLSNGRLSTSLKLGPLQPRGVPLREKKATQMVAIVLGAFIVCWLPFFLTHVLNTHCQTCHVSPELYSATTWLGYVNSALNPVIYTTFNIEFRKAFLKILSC

The target of the first assay is T1, porcine D1R (Sus scrofa, UniProt P50130).
T1 construct: homogenates obtained from porcine striatum; from tissue; host or cells: porcine striatum homogenate
T1 sequence (P50130 whole entry): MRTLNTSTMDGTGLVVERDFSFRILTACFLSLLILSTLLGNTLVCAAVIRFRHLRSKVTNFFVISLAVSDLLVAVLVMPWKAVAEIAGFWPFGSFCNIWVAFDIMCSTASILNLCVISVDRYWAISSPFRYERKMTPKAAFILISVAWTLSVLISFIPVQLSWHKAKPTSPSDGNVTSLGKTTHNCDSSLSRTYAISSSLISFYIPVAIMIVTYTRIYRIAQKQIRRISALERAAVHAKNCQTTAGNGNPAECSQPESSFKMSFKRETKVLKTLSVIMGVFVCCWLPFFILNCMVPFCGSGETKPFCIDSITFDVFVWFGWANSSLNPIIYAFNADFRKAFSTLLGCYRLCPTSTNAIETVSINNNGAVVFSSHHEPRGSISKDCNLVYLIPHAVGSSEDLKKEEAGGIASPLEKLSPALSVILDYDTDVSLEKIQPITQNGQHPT
As to the kind of experiment: Radioligand competition, [3H]SCH23390, porcine striatum homogenates. It counts as binding. The following applies: [3H]SCH23,390; mean of n experiments; read-out: Ki pD1R. On the technique in general: Loss of bound radioactivity is the signal in a displacement assay; it reports binding, not function.
In the case of `CCCN(CCCCc1cn(-c2ccc(C#N)cc2)nn1)C1Cc2ccccc2C1` [2a], the Ki stood at 3000 nM.
Turning to `N#Cc1ccc(-n2cc(CCCCN3CCN(c4cccc(Cl)c4Cl)CC3)nn2)cc1` [2b], the Ki was found to be 540 nM.
In the case of `COc1ccccc1N1CCN(CCCCc2cn(-c3ccc(C#N)cc3)nn2)CC1` [2c], the Ki was 1100 nM.
On to `CC(C)(C)c1nc(N2CCN(CCCCc3cn(-c4ccc(C#N)cc4)nn3)CC2)cc(C(F)(F)F)n1` [2d], for which the Ki was found to be 5500 nM.
With `CCCN(CCCCc1cn(-c2ccc(CNS(=O)(=O)c3cccc4c(N(C)C)cccc34)cc2)nn1)C1Cc2ccccc2C1` [4a], the Ki worked out at 590 nM.
For the molecule `CN(C)c1cccc2c(S(=O)(=O)NCc3ccc(-n4cc(CCCCN5CCN(c6cccc(Cl)c6Cl)CC5)nn4)cc3)cccc12` [4b], the Ki amounted to 190 nM.
On the same count and under the same terms, with `COc1ccccc1N1CCN(CCCCc2cn(-c3ccc(CNS(=O)(=O)c4cccc5c(N(C)C)cccc45)cc3)nn2)CC1` [4c] the figure was 180 nM.

The next assay deals with D2SR (Homo sapiens, UniProt P14416). Nature of the assay: Radioligand competition, [3H]spiperone, CHO cell membranes.
D2SR, sequence (P14416 1-414 isoform P14416-2): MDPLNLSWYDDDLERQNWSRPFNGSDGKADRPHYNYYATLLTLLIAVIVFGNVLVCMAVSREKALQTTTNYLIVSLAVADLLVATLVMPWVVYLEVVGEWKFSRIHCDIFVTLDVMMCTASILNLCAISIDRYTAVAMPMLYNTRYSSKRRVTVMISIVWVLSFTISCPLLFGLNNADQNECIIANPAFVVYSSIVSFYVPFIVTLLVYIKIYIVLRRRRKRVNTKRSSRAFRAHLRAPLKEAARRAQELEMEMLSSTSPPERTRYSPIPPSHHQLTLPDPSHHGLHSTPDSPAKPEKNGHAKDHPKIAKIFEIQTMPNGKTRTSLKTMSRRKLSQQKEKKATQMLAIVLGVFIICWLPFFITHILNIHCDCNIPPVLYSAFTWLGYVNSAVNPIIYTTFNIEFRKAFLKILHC
Settings: not given
As to `CCCN(CCCCc1cn(-c2ccc(C#N)cc2)nn1)C1Cc2ccccc2C1` [2a], the affinity, expressed as Ki, was 6.5 ± 1.7 nM.
Regarding `N#Cc1ccc(-n2cc(CCCCN3CCN(c4cccc(Cl)c4Cl)CC3)nn2)cc1` [2b], the Ki is 6.3 ± 0.2 nM.
Molecule `COc1ccccc1N1CCN(CCCCc2cn(-c3ccc(C#N)cc3)nn2)CC1` [2c] had a Ki of 34 ± 8 nM.
`CC(C)(C)c1nc(N2CCN(CCCCc3cn(-c4ccc(C#N)cc4)nn3)CC2)cc(C(F)(F)F)n1` [2d] displayed a Ki of 350 ± 30 nM.
Still for that read-out and setting: with `CCCN(CCCCc1cn(-c2ccc(CNS(=O)(=O)c3cccc4c(N(C)C)cccc34)cc2)nn1)C1Cc2ccccc2C1` [4a] the figure was 1.7 ± 0.3 nM; with `CN(C)c1cccc2c(S(=O)(=O)NCc3ccc(-n4cc(CCCCN5CCN(c6cccc(Cl)c6Cl)CC5)nn4)cc3)cccc12` [4b], 5.1 ± 1.7 nM.
Molecule `COc1ccccc1N1CCN(CCCCc2cn(-c3ccc(CNS(=O)(=O)c4cccc5c(N(C)C)cccc45)cc3)nn2)CC1` [4c] displayed a Ki of 8.4 ± 3.4 nM.

In the next assay the target is T2, human D4R (Homo sapiens, UniProt P21917).
T2 sequence (P21917 1-419): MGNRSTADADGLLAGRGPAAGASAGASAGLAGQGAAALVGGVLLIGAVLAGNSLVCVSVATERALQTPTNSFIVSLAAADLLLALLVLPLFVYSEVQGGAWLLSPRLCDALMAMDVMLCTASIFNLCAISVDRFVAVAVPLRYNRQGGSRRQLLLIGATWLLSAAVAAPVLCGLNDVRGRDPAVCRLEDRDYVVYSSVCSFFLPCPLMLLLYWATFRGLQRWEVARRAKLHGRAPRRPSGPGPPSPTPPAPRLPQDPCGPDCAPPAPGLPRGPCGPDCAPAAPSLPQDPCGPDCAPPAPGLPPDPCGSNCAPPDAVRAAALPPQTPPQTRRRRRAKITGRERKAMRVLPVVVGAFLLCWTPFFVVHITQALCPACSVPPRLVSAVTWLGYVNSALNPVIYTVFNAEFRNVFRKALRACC
Described as above.
Settings: not given
On to `CCCN(CCCCc1cn(-c2ccc(C#N)cc2)nn1)C1Cc2ccccc2C1` [2a], for which affinity was put at a Ki of 33 ± 7 nM.
Molecule `N#Cc1ccc(-n2cc(CCCCN3CCN(c4cccc(Cl)c4Cl)CC3)nn2)cc1` [2b] gave a Ki of 120 ± 61 nM.
Take `COc1ccccc1N1CCN(CCCCc2cn(-c3ccc(C#N)cc3)nn2)CC1` [2c]: the affinity, expressed as Ki, was 140 ± 10 nM.
The molecule `CC(C)(C)c1nc(N2CCN(CCCCc3cn(-c4ccc(C#N)cc4)nn3)CC2)cc(C(F)(F)F)n1` [2d] gave a Ki of 5000 nM.
`CCCN(CCCCc1cn(-c2ccc(CNS(=O)(=O)c3cccc4c(N(C)C)cccc34)cc2)nn1)C1Cc2ccccc2C1` [4a] yielded a Ki of 27 ± 3 nM.
The same measure, in the same setting: with `CN(C)c1cccc2c(S(=O)(=O)NCc3ccc(-n4cc(CCCCN5CCN(c6cccc(Cl)c6Cl)CC5)nn4)cc3)cccc12` [4b] the figure was 59 ± 20 nM; with `COc1ccccc1N1CCN(CCCCc2cn(-c3ccc(CNS(=O)(=O)c4cccc5c(N(C)C)cccc45)cc3)nn2)CC1` [4c], 32 ± 6 nM.

The target in another assay is human D2LR (Homo sapiens, UniProt P14416). The assay is described as above.
human D2LR, sequence (P14416 whole entry): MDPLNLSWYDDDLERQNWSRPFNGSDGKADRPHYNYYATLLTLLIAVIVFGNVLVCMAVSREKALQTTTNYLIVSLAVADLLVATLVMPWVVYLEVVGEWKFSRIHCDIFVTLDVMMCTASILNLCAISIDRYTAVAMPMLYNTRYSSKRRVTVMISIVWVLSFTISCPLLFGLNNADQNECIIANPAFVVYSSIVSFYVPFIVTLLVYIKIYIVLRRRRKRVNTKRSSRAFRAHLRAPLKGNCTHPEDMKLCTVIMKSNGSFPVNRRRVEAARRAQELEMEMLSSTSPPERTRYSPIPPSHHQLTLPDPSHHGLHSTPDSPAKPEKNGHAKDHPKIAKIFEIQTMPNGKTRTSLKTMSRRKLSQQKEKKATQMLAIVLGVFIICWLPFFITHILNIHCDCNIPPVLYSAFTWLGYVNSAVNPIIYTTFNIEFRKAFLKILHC
Settings: not given
The molecule `CCCN(CCCCc1cn(-c2ccc(C#N)cc2)nn1)C1Cc2ccccc2C1` [2a] registered a Ki of 8.7 ± 2.5 nM.
The same measure, in the same setting: the same measure for `N#Cc1ccc(-n2cc(CCCCN3CCN(c4cccc(Cl)c4Cl)CC3)nn2)cc1` [2b]: 15 ± 5 nM.
The molecule `COc1ccccc1N1CCN(CCCCc2cn(-c3ccc(C#N)cc3)nn2)CC1` [2c] returned a Ki of 77 ± 17 nM.
`CC(C)(C)c1nc(N2CCN(CCCCc3cn(-c4ccc(C#N)cc4)nn3)CC2)cc(C(F)(F)F)n1` [2d] yielded a Ki of 360 ± 60 nM.
On to `CCCN(CCCCc1cn(-c2ccc(CNS(=O)(=O)c3cccc4c(N(C)C)cccc34)cc2)nn1)C1Cc2ccccc2C1` [4a], for which the Ki turned out to be 5.2 ± 0.6 nM.
On the same count and under the same terms, with `CN(C)c1cccc2c(S(=O)(=O)NCc3ccc(-n4cc(CCCCN5CCN(c6cccc(Cl)c6Cl)CC5)nn4)cc3)cccc12` [4b] the figure was 20 ± 8 nM.
Consider `COc1ccccc1N1CCN(CCCCc2cn(-c3ccc(CNS(=O)(=O)c4cccc5c(N(C)C)cccc45)cc3)nn2)CC1` [4c], for which the Ki is 17 ± 7 nM.

The next assay addresses T3, porcine 5-HT1AR (Sus scrofa, UniProt A0A4X1UTF5).
T3 construct: homogenates of porcine cerebral cortex; from tissue; host or cells: porcine cerebral cortex homogenate
T3 sequence (A0A4X1UTF5 1-422): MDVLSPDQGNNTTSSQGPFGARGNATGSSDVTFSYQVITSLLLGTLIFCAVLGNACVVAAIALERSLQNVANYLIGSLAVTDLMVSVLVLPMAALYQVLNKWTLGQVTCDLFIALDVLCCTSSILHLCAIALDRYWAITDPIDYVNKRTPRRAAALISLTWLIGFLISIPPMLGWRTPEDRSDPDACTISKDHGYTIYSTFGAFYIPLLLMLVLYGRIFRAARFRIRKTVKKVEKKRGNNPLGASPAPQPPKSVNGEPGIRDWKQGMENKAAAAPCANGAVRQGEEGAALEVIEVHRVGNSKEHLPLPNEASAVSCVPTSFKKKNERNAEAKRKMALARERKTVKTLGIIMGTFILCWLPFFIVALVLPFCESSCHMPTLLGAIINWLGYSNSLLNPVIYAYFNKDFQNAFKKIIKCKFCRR
Nature of the assay: Radioligand competition, [3H]WAY100,635, porcine cerebral cortex homogenates. Conditions: mean of n experiments, read-out: Ki p5-HT1AR. Format: binding.
As to `CCCN(CCCCc1cn(-c2ccc(C#N)cc2)nn1)C1Cc2ccccc2C1` [2a], the Ki was found to be 52 nM.
With `N#Cc1ccc(-n2cc(CCCCN3CCN(c4cccc(Cl)c4Cl)CC3)nn2)cc1` [2b], the Ki is 260 nM.
Regarding `COc1ccccc1N1CCN(CCCCc2cn(-c3ccc(C#N)cc3)nn2)CC1` [2c], the Ki amounted to 25 nM.
For the molecule `CC(C)(C)c1nc(N2CCN(CCCCc3cn(-c4ccc(C#N)cc4)nn3)CC2)cc(C(F)(F)F)n1` [2d], the Ki amounted to 4100 nM.
Turning to `CCCN(CCCCc1cn(-c2ccc(CNS(=O)(=O)c3cccc4c(N(C)C)cccc34)cc2)nn1)C1Cc2ccccc2C1` [4a], the Ki came to 27 nM.
In the case of `CN(C)c1cccc2c(S(=O)(=O)NCc3ccc(-n4cc(CCCCN5CCN(c6cccc(Cl)c6Cl)CC5)nn4)cc3)cccc12` [4b], the Ki was 78 nM.
Turning to `COc1ccccc1N1CCN(CCCCc2cn(-c3ccc(CNS(=O)(=O)c4cccc5c(N(C)C)cccc45)cc3)nn2)CC1` [4c], the inhibitory constant (Ki) came to 55 nM.

A further assay concerns the target human D3R (Homo sapiens, UniProt P35462). Nature of the assay: Radioligand competition, [3H]spiperone, CHO cell membranes.
Settings: not given
Take `CCCN(CCCCc1cn(-c2ccc(C#N)cc2)nn1)C1Cc2ccccc2C1` [2a]: the Ki turned out to be 0.41 ± 0.09 nM.
`N#Cc1ccc(-n2cc(CCCCN3CCN(c4cccc(Cl)c4Cl)CC3)nn2)cc1` [2b]: the Ki was determined as 1 ± 0.2 nM.
The molecule `COc1ccccc1N1CCN(CCCCc2cn(-c3ccc(C#N)cc3)nn2)CC1` [2c] displayed a Ki of 13 ± 4 nM.
The same measure, in the same setting: the same measure for `CC(C)(C)c1nc(N2CCN(CCCCc3cn(-c4ccc(C#N)cc4)nn3)CC2)cc(C(F)(F)F)n1` [2d]: 9.5 ± 1.9 nM.
Still for that read-out and setting: with `CCCN(CCCCc1cn(-c2ccc(CNS(=O)(=O)c3cccc4c(N(C)C)cccc34)cc2)nn1)C1Cc2ccccc2C1` [4a] the figure was 0.29 ± 0.02 nM; with `CN(C)c1cccc2c(S(=O)(=O)NCc3ccc(-n4cc(CCCCN5CCN(c6cccc(Cl)c6Cl)CC5)nn4)cc3)cccc12` [4b], 1.9 ± 0.7 nM; with `COc1ccccc1N1CCN(CCCCc2cn(-c3ccc(CNS(=O)(=O)c4cccc5c(N(C)C)cccc45)cc3)nn2)CC1` [4c], 6.5 ± 2.3 nM.

For a further assay, the target named is T4, porcine 5-HT2R (Sus scrofa, UniProt P50129).
T4 construct: homogenates of porcine cerebral cortex; from tissue; host or cells: porcine cerebral cortex homogenate
T4 sequence (P50129 whole entry): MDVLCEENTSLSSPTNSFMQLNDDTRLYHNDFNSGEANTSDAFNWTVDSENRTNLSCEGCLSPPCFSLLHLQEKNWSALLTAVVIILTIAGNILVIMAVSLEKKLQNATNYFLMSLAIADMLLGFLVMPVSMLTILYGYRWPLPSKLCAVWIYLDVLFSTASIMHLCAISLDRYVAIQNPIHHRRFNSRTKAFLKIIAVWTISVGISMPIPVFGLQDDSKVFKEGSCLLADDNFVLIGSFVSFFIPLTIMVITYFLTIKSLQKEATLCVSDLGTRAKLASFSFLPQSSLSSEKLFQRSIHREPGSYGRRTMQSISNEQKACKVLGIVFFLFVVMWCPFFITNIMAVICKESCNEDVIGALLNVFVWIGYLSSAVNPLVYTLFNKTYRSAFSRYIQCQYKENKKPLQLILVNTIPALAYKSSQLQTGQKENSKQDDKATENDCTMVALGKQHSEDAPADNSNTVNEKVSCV
As to the kind of experiment: Radioligand competition, [3H]ketanserin, porcine cerebral cortex homogenates. The following applies: mean of n experiments, read-out: Ki p5-HT2R. Format: binding.
As to `CCCN(CCCCc1cn(-c2ccc(C#N)cc2)nn1)C1Cc2ccccc2C1` [2a], the Ki amounted to 850 nM.
Regarding `N#Cc1ccc(-n2cc(CCCCN3CCN(c4cccc(Cl)c4Cl)CC3)nn2)cc1` [2b], the Ki stood at 1100 nM.
In the case of `COc1ccccc1N1CCN(CCCCc2cn(-c3ccc(C#N)cc3)nn2)CC1` [2c], the Ki was 600 nM.
For `CC(C)(C)c1nc(N2CCN(CCCCc3cn(-c4ccc(C#N)cc4)nn3)CC2)cc(C(F)(F)F)n1` [2d], the Ki was 4400 nM.
Turning to `CCCN(CCCCc1cn(-c2ccc(CNS(=O)(=O)c3cccc4c(N(C)C)cccc34)cc2)nn1)C1Cc2ccccc2C1` [4a], the Ki was found to be 220 nM.
As to `CN(C)c1cccc2c(S(=O)(=O)NCc3ccc(-n4cc(CCCCN5CCN(c6cccc(Cl)c6Cl)CC5)nn4)cc3)cccc12` [4b], the Ki turned out to be 390 nM.
With `COc1ccccc1N1CCN(CCCCc2cn(-c3ccc(CNS(=O)(=O)c4cccc5c(N(C)C)cccc45)cc3)nn2)CC1` [4c], the Ki is 450 nM.

For the next assay, the target named is porcine α1-AR. Nature of the assay: Radioligand competition, [3H]prazosin, porcine cerebral cortex homogenates. Conditions: read-out: Ki pα1-AR, mean of n experiments.
For the molecule `CCCN(CCCCc1cn(-c2ccc(C#N)cc2)nn1)C1Cc2ccccc2C1` [2a], the Ki came to 87 nM.
Still for that read-out and setting: the same measure for `N#Cc1ccc(-n2cc(CCCCN3CCN(c4cccc(Cl)c4Cl)CC3)nn2)cc1` [2b]: 4.9 nM; for `COc1ccccc1N1CCN(CCCCc2cn(-c3ccc(C#N)cc3)nn2)CC1` [2c]: 2.4 nM; for `CC(C)(C)c1nc(N2CCN(CCCCc3cn(-c4ccc(C#N)cc4)nn3)CC2)cc(C(F)(F)F)n1` [2d]: 1100 nM.
On to `CCCN(CCCCc1cn(-c2ccc(CNS(=O)(=O)c3cccc4c(N(C)C)cccc34)cc2)nn1)C1Cc2ccccc2C1` [4a], for which the Ki stood at 29 nM.
In the case of `CN(C)c1cccc2c(S(=O)(=O)NCc3ccc(-n4cc(CCCCN5CCN(c6cccc(Cl)c6Cl)CC5)nn4)cc3)cccc12` [4b], the Ki was found to be 7.9 nM.
As to `COc1ccccc1N1CCN(CCCCc2cn(-c3ccc(CNS(=O)(=O)c4cccc5c(N(C)C)cccc45)cc3)nn2)CC1` [4c], the Ki turned out to be 1.1 nM.

The Ki is a measure of affinity in units of concentration, obtained from inhibition or displacement.
